Laboratory results reported in US7718808B2, “Thiazole derivatives” (Kyowa Hakko Kirin Co., Ltd., priority 2003, dated 2010).

melting point	Structure (SMILES)
270 to 300 °C (dec.)	O=C(Nc1nc(-c2ccco2)c(-c2ccncc2)s1)c1ccc(F)cc1 [Compound 102, 4-Fluoro-N-[4-(2-furyl)-5-(4-pyridyl)thiazol-2-yl]benzamide]
235 to 245 °C	COc1ccc(C(=O)Nc2nc(-c3ccco3)c(-c3ccncc3)s2)cc1 [Compound 103, N-[4-(2-Furyl)-5-(4-pyridyl)thiazol-2-yl]-4-methoxybenzamide]
285 to 288 °C	COc1cc(C(=O)Nc2nc(-c3ccco3)c(-c3ccncc3)s2)ccn1 [Compound 105, N-[4-(2-Furyl)-5-(4-pyridyl)thiazol-2-yl]-2-methoxypyridine-4-carboxamide]
239 to 250 °C	O=C(Nc1nc(-c2ccco2)c(-c2ccncc2)s1)c1ccnc(Cn2ccnc2)c1 [Compound 108, N-[4-(2-Furyl)-5-(4-pyridyl)thiazol-2-yl]-2-(imidazol-1-ylmethyl)pyridine-4-carboxamide]
203 to 205 °C	CN(C)CCN(C)Cc1cc(C(=O)Nc2nc(-c3ccco3)c(-c3ccncc3)s2)ccn1 [Compound 109, 2-{N-[2-(Dimethylamino)ethyl]-N-methylaminomethyl}-N-[4-(2-furyl)-5-(4-pyridyl)thiazol-2-yl]pyridine-4-carboxamide]
195 to 197 °C	COCCN(C)Cc1cc(C(=O)Nc2nc(-c3ccco3)c(-c3ccncc3)s2)ccn1 [Compound 110, N-[4-(2-Furyl)-5-(4-pyridyl)thiazol-2-yl]-2-[N-(2-methoxyethyl)-N-methylaminomethyl]pyridine-4-carboxamide]
277 to 281 °C	O=C(Nc1nc(-c2ccco2)c(-c2ccncc2)s1)c1cc[nH]c(=O)c1 [Compound 112, N-[4-(2-Furyl)-5-(4-pyridyl)thiazol-2-yl]-2-oxo-1,2-dihydropyridine-4-carboxamide]
244 to 248 °C	O=C(Nc1nc(-c2ccco2)c(-c2ccncc2)s1)c1ccn(Cc2ccccc2)c(=O)c1 [Compound 113, 1-Benzyl-N-[4-(2-furyl)-5-(4-pyridyl)thiazol-2-yl]-2-oxo-1,2-dihydropyridine-4-carboxamide]
280 to 282 °C	Cn1ccc(-c2sc(NC(=O)c3ccncc3)nc2-c2ccco2)cc1=O [Compound 123, N-[4-(2-Furyl)-5-(1-methyl-2-oxo-1,2-dihydropyridine-4-yl)thiazol-2-yl]pyridine-4-carboxamide]
245 to 248 °C	CCn1ccc(-c2sc(NC(=O)c3ccncc3)nc2-c2ccco2)cc1=O [Compound 124, N-[5-(1-Ethyl-2-oxo-1,2-dihydropyridin-4-yl)-4-(2-furyl)thiazol-2-yl]pyridine-4-carboxamide]
137 to 140 °C	O=C(Nc1nc(-c2ccco2)c(-c2ccn(Cc3ccccc3)c(=O)c2)s1)c1ccncc1 [Compound 125, N-[5-(1-Benzyl-2-oxo-1,2-dihydropyridin-4-yl)-4-(2-furyl)thiazol-2-yl]pyridine-4-carboxamide]
294 to 295 °C	Cn1cc(-c2sc(NC(=O)c3ccncc3)nc2-c2ccco2)ccc1=O [Compound 126, N-[4-(2-Furyl)-5-(1-methyl-2-oxo-1,2-dihydropyridin-5-yl)thiazol-2-yl]pyridine-4-carboxamide]
285 to 289 °C	CCn1cc(-c2sc(NC(=O)c3ccncc3)nc2-c2ccco2)ccc1=O [Compound 127, N-[5-(1-Ethyl-2-oxo-1,2-dihydropyridin-5-yl)-4-(2-furyl)thiazol-2-yl]pyridine-4-carboxamide]
215 to 218 °C	O=C(Nc1nc(-c2ccco2)c(-c2ccc(=O)n(Cc3ccccc3)c2)s1)c1ccncc1 [Compound 128, N-[5-(1-Benzyl-2-oxo-1,2-dihydropyridin-5-yl)-4-(2-furyl)thiazol-2-yl]pyridine-4-carboxamide]
> 300 °C	CCn1c(-c2sc(NC(=O)c3ccncc3)nc2-c2ccco2)cccc1=O [Compound 129, N-[5-(1-Ethyl-6-oxo-1,6-dihydropyridin-2-yl)-4-(2-furyl)thiazol-2-yl]pyridine-4-carboxamide]
235 to 239 °C	CCn1nc(-c2sc(NC(=O)c3ccncc3)nc2-c2ccco2)ccc1=O [Compound 130, N-[5-(1-Ethyl-6-oxo-1,6-dihydropyridazin-3-yl)-4-(2-furyl)thiazol-2-yl]pyridine-4-carboxamide]

More lines, now with the values behind:

Structure (SMILES)	melting point
COC1CCN(CC(=O)Nc2nc(-c3ccco3)c(C(=O)c3ccccn3)s2)CC1.Cl	220 to 232 °C (dec.)
CCN(CC)C(=O)C1CCCN(CC(=O)Nc2nc(-c3ccco3)c(C(=O)c3ccccn3)s2)C1.Cl (centres unmarked)	180 to 185 °C
CN1CCN(CC(=O)Nc2nc(-c3ccco3)c(C(=O)c3ccccn3)s2)CC1=O.Cl	170 to 188 °C
CC(C)(C)C(=O)Nc1nc(-c2ccco2)c(-c2ccncc2)s1 [Compound 104, N-[4-(2-Furyl)-5-(4-pyridyl)thiazol-2-yl]-2,2-dimethylpropanamide]	240 to 241 °C
O=C(Nc1nc(-c2ccco2)c(-c2ccncc2)s1)c1ccnc(CN2CCC(O)CC2)c1 [Compound 111, N-[4-(2-Furyl)-5-(4-pyridyl)thiazol-2-yl]-2-(4-hydroxypiperidinomethyl)pyridine-4-carboxamide]	203 to 208 °C
COc1ccc(-c2sc(NC(=O)c3ccccc3)nc2-c2ccco2)cc1 [Compound 119, N-[4-(2-Furyl)-5-(4-methoxyphenyl)thiazol-2-yl]benzamide]	90 to 98 °C
CC(C)(O)C(=O)Nc1nc(-c2ccco2)c(C(=O)c2ccccc2)s1 [Compound 137, N-[5-Benzoyl-4-(2-furyl)thiazol-2-yl]-2-hydroxy-2-methylpropanamide]	153 to 154 °C
O=C(c1ccccc1)c1sc(NC(=O)C2(O)CC2)nc1-c1ccco1 [Compound 138, N-[5-Benzoyl-4-(2-furyl)thiazol-2-yl]-1-hydroxycyclopropanecarboxamide]	202 to 205 °C
CN(C)Cc1cc(C(=O)Nc2nc(-c3ccco3)c(C(=O)c3ccccc3)s2)ccn1 [Compound 141, N-[5-Benzoyl-4-(2-furyl)thiazol-2-yl]-2-(dimethylaminomethyl)pyridine-4-carboxamide]	205 to 209 °C
O=C(Nc1nc(-c2ccco2)c(C(=O)c2ccccc2)s1)c1ccnc(CN2CCOCC2)c1 [Compound 144, N-[5-Benzoyl-4-(2-furyl)thiazol-2-yl]-2-(morpholinomethyl)pyridine-4-carboxamide]	212 to 213 °C
COCCN(C)c1cc(C(=O)Nc2nc(-c3ccco3)c(C(=O)c3ccccc3)s2)ccn1 [Compound 145, N-[5-Benzoyl-4-(2-furyl)thiazol-2-yl]-2-[N-(2-methoxyethyl)-N-methylamino]pyridine-4-carboxamide]	145 to 147 °C
O=C(Nc1nc(-c2ccco2)c(C(=O)c2ccccc2)s1)c1ccnc(N2CCCCC2)c1 [Compound 146, N-[5-Benzoyl-4-(2-furyl)thiazol-2-yl]-2-piperidinopyridine-4-carboxamide]	195 to 198 °C
Cn1cc(C(=O)Nc2nc(-c3ccco3)c(C(=O)c3ccccc3)s2)ccc1=O [Compound 150, N-[5-Benzoyl-4-(2-furyl)thiazol-2-yl]-1-methyl-2-oxo-1,2-dihydropyridine-5-carboxamide]	220 to 225 °C
O=C(Nc1nc(-c2ccco2)c(C(=O)c2ccccc2)s1)c1ccc(=O)n(Cc2ccncc2)c1 [Compound 152, N-[5-Benzoyl-4-(2-furyl)thiazol-2-yl]-2-oxo-1-(pyridin-4-ylmethyl)-1,2-dihydropyridine-5-carboxamide]	270 to 275 °C
O=C(Nc1nc(-c2ccco2)c(C(=O)c2ccccc2)s1)c1ccnnc1 [Compound 153, N-[5-Benzoyl-4-(2-furyl)thiazol-2-yl]pyridazine-4-carboxamide]	225 to 248 °C
CC(=O)Nc1nc(-c2ccco2)c(C(=O)c2ccccn2)s1 [Compound 188, N-[4-(2-Furyl)-5-(pyridin-2-ylcarbonyl)thiazol-2-yl]acetamide]	216 to 217 °C
CCCC(=O)Nc1nc(-c2ccco2)c(C(=O)c2ccccn2)s1 [Compound 189, N-[4-(2-Furyl)-5-(pyridin-2-ylcarbonyl)thiazol-2-yl]butanamide]	148 to 149 °C
CC(C)(C)C(=O)Nc1nc(-c2ccco2)c(C(=O)c2ccccn2)s1 [Compound 190, N-[4-(2-Furyl)-5-(pyridin-2-ylcarbonyl)thiazol-2-yl]-2,2-dimethylpropanamide]	186 to 187 °C
CC1(C(=O)Nc2nc(-c3ccco3)c(C(=O)c3ccccn3)s2)CC1 [Compound 192, N-[4-(2-Furyl)-5-(pyridin-2-ylcarbonyl)thiazol-2-yl]-1-methylcyclopropanecarboxamide]	195 to 196 °C
O=C(c1ccccn1)c1sc(NC(=O)C2CCC2)nc1-c1ccco1 [Compound 193, N-[4-(2-Furyl)-5-(pyridin-2-ylcarbonyl)thiazol-2-yl]cyclobutanecarboxamide]	165 to 170 °C
O=C(c1ccccn1)c1sc(NC(=O)C2CCOCC2)nc1-c1ccco1 [Compound 194, N-[4-(2-Furyl)-5-(pyridin-2-ylcarbonyl)thiazol-2-yl]tetrahydropyran-4-carboxamide]	234 to 235 °C
O=C(c1ccccn1)c1sc(NC(=O)C2CCN(Cc3cccnc3)CC2)nc1-c1ccco1 [Compound 197, N-[4-(2-Furyl)-5-(pyridin-2-ylcarbonyl)thiazol-2-yl]-1-(pyridin-3-ylmethyl)piperidine-4-carboxamide]	208 to 209 °C
O=C(c1ccccn1)c1sc(NC(=O)C2CCN(Cc3ccncc3)CC2)nc1-c1ccco1 [Compound 198, N-[4-(2-Furyl)-5-(pyridin-2-ylcarbonyl)thiazol-2-yl]-1-(pyridin-4-ylmethyl)piperidine-4-carboxamide]	240 to 241 °C
O=C(Nc1nc(-c2ccco2)c(C(=O)c2ccccn2)s1)c1ccccc1 [Compound 199, N-[4-(2-Furyl)-5-(pyridin-2-ylcarbonyl)thiazol-2-yl]benzamide]	165 to 171 °C
COc1ccccc1C(=O)Nc1nc(-c2ccco2)c(C(=O)c2ccccn2)s1 [Compound 200, N-[4-(2-Furyl)-5-(pyridin-2-ylcarbonyl)thiazol-2-yl]-2-methoxybenzamide]	205 to 208 °C
